Experimental findings from US12018016B2, “Aryl sulfonyl (hydroxy) piperidines as CCR6 inhibitors” (CHEMOCENTRYX, INC., priority 2021, dated 2024) are described below.

The target of the assay is T1, human CCR6 (Homo sapiens, UniProt P51684).
T1 construct: expressed in transfected cells; host or cells: Ba/F3 cells (mouse pro-B line)
T1 sequence (P51684 1-374): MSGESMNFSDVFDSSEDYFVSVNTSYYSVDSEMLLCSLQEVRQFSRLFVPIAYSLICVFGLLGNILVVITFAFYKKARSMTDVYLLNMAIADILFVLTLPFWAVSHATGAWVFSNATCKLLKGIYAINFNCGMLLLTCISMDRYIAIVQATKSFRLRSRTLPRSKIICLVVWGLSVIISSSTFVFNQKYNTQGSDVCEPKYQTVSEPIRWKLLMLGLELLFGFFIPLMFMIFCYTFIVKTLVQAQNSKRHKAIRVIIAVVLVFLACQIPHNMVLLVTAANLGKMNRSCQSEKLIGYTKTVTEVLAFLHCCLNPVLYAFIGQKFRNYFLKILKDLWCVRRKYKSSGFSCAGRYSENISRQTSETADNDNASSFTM
In words: Migration assay (chemotaxis, ChemoTX). The class given is cell-based. To be noted: hCCR6-transfected Ba/F3 cells in human serum, migration to recombinant human CCL20 10 nM, 37° C. 45 minutes; read-out: Potency (IC50 value in the migration assay). The text has this: A chemotaxis assay can be used to determine the efficacy of potential receptor antagonists at blocking the migration mediated through chemokine receptors, such as CCR6. This assay is routinely performed using the ChemoTX® microchamber system with a 5-μm pore-sized polycarbonate membrane. Chemokine receptor-expressing cells are required for such an assay. In this case, Ba/F3 cells (Palacios et al., Nature, 309:126, 1984) transfected with the gene for human CCR6 under control of the CMV promotor were used. To begin such an assay, hCCR6-transfected Ba/F3 cells are first grown for 24 hr in medium supplemented with sodium butyrate, which increases CCR6 transcription via the CMV promotor. The prepared Ba/F3 cells, are collected by centrifugation at 400×g at room temperature, then suspended at 4 million/ml in human serum. The compound being tested is serially diluted from a maximum final concentration of 1 μM (or an equivalent volume of its solvent (DMSO)) and is then added to the cell/serum mixture. Separately, recombinant human CCL20 (MIP-3α/LARC) at its EC50 concentration (10 nM) is placed in the lower wells of the ChemoTX® plate. The 5-μm (pore size) polycarbonate membrane is placed onto the plate, and 20 μL of the cell/compound mixture is transferred onto each well of the membrane. The plates are incubated at 37° C. for 45 minutes, after which the polycarbonate membranes are removed and 5 μl of the DNA-intercalating dye CyQUANT (Invitrogen, Carlsbad, CA) is added to the lower wells. The amount of fluorescence, corresponding to the number of migrated cells, is measured using a Spectrafluor Plus plate reader (TECAN, San Jose, CA).

As for `NC(=O)c1cc(-c2ccc(S(=O)(=O)N3CC[C@@H](Nc4ccc(C(F)(F)F)cn4)[C@@H](O)C3)cc2)cnn1` [Compound 198], the IC50 was under 1 nM.

In the case of `Nc1nc2ccc(-c3ccc(S(=O)(=O)N4CC[C@@H](Nc5ccc(C(F)(F)F)cn5)[C@@H](O)C4)cc3)cc2c(=O)[nH]1` [Example 30, 2-amino-6-(4-(((3S,4R)-3-hydroxy-4-((5-(trifluoromethyl)pyridin-2-yl)amino)piperidin-1-yl)sulfonyl)phenyl)quinazolin-4(3H)-one], the IC50 is under 1 nM.

Take `Cc1nnc(-c2cc(-c3ccc(S(=O)(=O)N4CC[C@@H](Nc5ccc(C(F)(F)F)cn5)[C@@H](O)C4)cc3)ccn2)o1` [Example 11, (3S,4R)-1-((4-(2-(5-methyl-1,3,4-oxadiazol-2-yl)pyridin-4-yl)phenyl)sulfonyl)-4-((5-(trifluoromethyl)pyridin-2-yl)amino)piperidin-3-ol]: the IC50 is under 1 nM.

In the case of `O=S(=O)(c1ccc(-c2ccncc2)cc1)N1CC[C@@H](Nc2ccc(C(F)(F)F)cn2)[C@@H](O)C1` [Compound 161], the IC50 was under 1 nM.

Take `Cn1ccnc1-c1cc(-c2ccc(S(=O)(=O)N3CC[C@@H](Nc4ccc(C(F)(F)F)cn4)[C@@H](O)C3)cc2)ccn1` [Compound 65, (3S,4R)-1-((4-(2-(1-methyl-1H-imidazol-2-yl)pyridin-4-yl)phenyl)sulfonyl)-4-((5-(trifluoromethyl)pyridin-2-yl)amino)piperidin-3-ol]: the IC50 fell in the range of 10 to 1000 nM.

Turning to `CN(C)c1cc(-c2ccc(S(=O)(=O)N3CC[C@@H](Nc4ccc(C(F)(F)F)cn4)[C@@H](O)C3)cc2)cc(C(N)=O)n1` [Compound 196], the IC50 is under 1 nM.

On to `NC(=O)c1ncc(-c2ccc(S(=O)(=O)N3CC[C@@H](Nc4ccc(C(F)(F)F)cn4)[C@@H](O)C3)cc2)cc1N` [Example 19, 3-Amino-5-(4-(((3S,4R)-3-hydroxy-4-((5-(trifluoromethyl)pyridin-2-yl)amino)piperidin-1-yl)sulfonyl)phenyl)picolinamide], for which the IC50 was in the range of 1 to 10 nM.

On to `O=S(=O)(c1ccc(-c2cnnc(Cl)c2)cc1)N1CC[C@@H](Nc2ccc(C(F)(F)F)cn2)[C@@H](O)C1` [Compound 201], for which the IC50 was under 1 nM.

Turning to `O=c1[nH]c2cc(-c3ccc(S(=O)(=O)N4CC[C@@H](Nc5ccc(C(F)(F)F)cn5)[C@@H](O)C4)cc3)cnc2[nH]1` [Example 54, 6-(4-(((3S,4R)-3-hydroxy-4-((5-(trifluoromethyl)pyridin-2-yl)amino)piperidin-1-yl)sulfonyl)phenyl)-1,3-dihydro-2H-imidazo[4,5-b]pyridin-2-one], the IC50 was under 1 nM.

As to `O=S(=O)(c1ccc(-c2cnc3c(O)nccc3c2)cc1)N1CC[C@@H](Nc2ccc(C(F)(F)F)cn2)[C@@H](O)C1` [Compound 190], the IC50 was under 1 nM.

Turning to `Cc1cc(-c2ccc(S(=O)(=O)N3CC[C@@H](Nc4ccc(C(F)(F)F)cn4)[C@@H](O)C3)cc2)cc2c(C#N)nn(C)c12` [Compound 121], the IC50 is under 1 nM.

`Nc1cc(-c2ccc(S(=O)(=O)N3CC[C@@H](Nc4ccc(C(F)(F)F)cn4)[C@@H](O)C3)cc2)ccn1` [Compound 126]: the IC50 was in the range of 1 to 10 nM.

`COc1cnc(C)cc1-c1ccc(S(=O)(=O)N2CC[C@@H](Nc3ccc(C(F)(F)F)cn3)[C@@H](O)C2)cc1` [Compound 156]: the IC50 was under 1 nM.

Take `O=S(=O)(c1ccc(-c2ccc(N3CCOCC3)nc2)cc1)N1CC[C@@H](Nc2ccc(C(F)(F)F)cn2)[C@@H](O)C1` [Compound 89, (3S,4R)-1-((4-(6-morpholinopyridin-3-yl)phenyl)sulfonyl)-4-((5-(trifluoromethyl)pyridin-2-yl)amino)piperidin-3-ol]: the IC50 was under 1 nM.

On to `O=S(=O)(c1ccc(-c2ccnc(N3CCCC3)c2)cc1)N1CC[C@@H](Nc2ccc(C(F)(F)F)cn2)[C@@H](O)C1` [Compound 90, (3S,4R)-1-((4-(2-(pyrrolidin-1-yl)pyridin-4-yl)phenyl)sulfonyl)-4-((5-(trifluoromethyl)pyridin-2-yl)amino)piperidin-3-ol], for which the IC50 was under 1 nM.

With `O=C(NCCO)c1cc(-c2ccc(S(=O)(=O)N3CC[C@@H](Nc4ccc(C(F)(F)F)cn4)[C@@H](O)C3)cc2)ccn1` [Example 41], the IC50 is under 1 nM.

For `O=C(O)c1cc(-c2ccc(S(=O)(=O)N3CC[C@@H](Nc4ccc(C(F)(F)F)cn4)[C@@H](O)C3)cc2)ccn1` [Compound 208], the IC50 is 10 to 1000 nM.

Consider `NC(=O)c1ncc(-c2ccc(S(=O)(=O)N3CC[C@@H](Nc4ccc(C(F)(F)F)cn4)[C@@H](O)C3)cc2)[nH]1` [Compound 197], for which the IC50 was in the range of 1 to 10 nM.

In the case of `O=S(=O)(c1ccc(-c2ccc(N3CCNCC3)nc2)cc1)N1CC[C@@H](Nc2ccc(C(F)(F)F)cn2)[C@@H](O)C1` [Compound 114], the IC50 is 1 to 10 nM.

Take `Cc1nc(-c2cc(-c3ccc(S(=O)(=O)N4CC[C@@H](Nc5ccc(C(F)(F)F)cn5)[C@@H](O)C4)cc3)ccn2)no1` [Compound 67, (3S,4R)-1-((4-(2-(5-methyl-1,2,4-oxadiazol-3-yl)pyridin-4-yl)phenyl)sulfonyl)-4-((5-(trifluoromethyl)pyridin-2-yl)amino)piperidin-3-ol]: the IC50 was under 1 nM.

Turning to `O=c1[nH]ncc2cc(-c3ccc(S(=O)(=O)N4CC[C@@H](Nc5ccc(C(F)(F)F)cn5)[C@@H](O)C4)cc3)ccc12` [Example 5, 6-(4-(((3S,4R)-3-hydroxy-4-((5-(trifluoromethyl)pyridin-2-yl)amino)piperidin-1-yl)sulfonyl)phenyl)phthalazin-1(2H)-one], the IC50 is under 1 nM.

Turning to `O=S(=O)(c1ccc(-c2ccnc(N3CC4(CNC4)C3)c2)cc1)N1CC[C@@H](Nc2ccc(C(F)(F)F)cn2)[C@@H](O)C1` [Compound 141], the IC50 was 1 to 10 nM.

Regarding `Cc1cnc(-c2cc(-c3ccc(S(=O)(=O)N4CC[C@@H](Nc5ccc(C(F)(F)F)cn5)[C@@H](O)C4)cc3)ccn2)o1` [Compound 70, (3S,4R)-1-((4-(2-(5-methyloxazol-2-yl)pyridin-4-yl)phenyl)sulfonyl)-4-((5-(trifluoromethyl)pyridin-2-yl)amino)piperidin-3-ol], the IC50 is under 1 nM.

Turning to `O=S(=O)(c1ccc(-c2ccc(N3CC[C@@H](O)C3)nc2)cc1)N1CC[C@@H](Nc2ccc(C(F)(F)F)cn2)[C@@H](O)C1` [Compound 176], the IC50 is under 1 nM.

Regarding `Cc1c(-c2ccc(S(=O)(=O)N3CC[C@@H](Nc4ccc(C(F)(F)F)cn4)[C@@H](O)C3)cc2)ccnc1C(N)=O` [Example 6, 4-(4-(((3S,4R)-3-Hydroxy-4-((5-(trifluoromethyl)pyridin-2-yl)amino)piperidin-1-yl)sulfonyl)phenyl)-3-methylpicolinamide], the IC50 is under 1 nM.

With `O=S(=O)(c1ccc(-c2ccnc(N3CCC(O)CC3)c2)cc1)N1CC[C@@H](Nc2ccc(C(F)(F)F)cn2)[C@@H](O)C1` [Compound 131], the IC50 was under 1 nM.

In the case of `O=c1[nH]ncc2ccc(-c3ccc(S(=O)(=O)N4CC[C@@H](Nc5ccc(C(F)(F)F)cn5)[C@@H](O)C4)cc3)cc12` [Compound 180], the IC50 is under 1 nM.

Take `NC(=O)c1cc(-c2ccc(S(=O)(=O)N3CC[C@@H](Nc4ccc(C(F)(F)F)cn4)[C@@H](O)C3)cc2)cnc1N` [Example 53, 2-Amino-5-(4-(((3S,4R)-3-hydroxy-4-((5-(trifluoromethyl)pyridin-2-yl)amino)piperidin-1-yl)sulfonyl)phenyl)nicotinamide]: the IC50 was under 1 nM.

As to `CN1CCN(c2ccc(-c3ccc(S(=O)(=O)N4CC[C@@H](Nc5ccc(C(F)(F)F)cn5)[C@@H](O)C4)cc3)cn2)CC1` [Compound 115], the IC50 is under 1 nM.

As to `N#Cc1cc(-c2ccc(S(=O)(=O)N3CC[C@@H](Nc4ccc(C(F)(F)F)cn4)[C@@H](O)C3)cc2)ccn1` [Example 57, 4-(4-(((3S,4R)-3-hydroxy-4-((5-(trifluoromethyl)pyridin-2-yl)amino)piperidin-1-yl)sulfonyl)phenyl)picolinonitrile], the IC50 is under 1 nM.

For the compound `CN(C)C1CCN(c2ccc(-c3ccc(S(=O)(=O)N4CC[C@@H](Nc5ccc(C(F)(F)F)cn5)[C@@H](O)C4)cc3)cn2)CC1` [Compound 105], the IC50 lay within 1 to 10 nM.

In the case of `O=S(=O)(c1ccc(-c2ccc(N3CCCCC3)nc2)cc1)N1CC[C@@H](Nc2ccc(C(F)(F)F)cn2)[C@@H](O)C1` [Compound 109], the IC50 lay within 1 to 10 nM.
